Assay results: patent US20050096349A1, “Methods to prevent or ameliorate medication-, procedure-or stress-induced cognitive and speech dysfunction and methods to optimize cognitive and speech functioning” (priority 2003, published 2005)

Assays:
[1] = system: compulsive shopping (impulse control disorder, not otherwise specified); test: Example 1: case report, topiramate for compulsive shopping; assay type: in vivo, patient
Description: (§1) Patient is a person with compulsive shopping (impulse control disorder, not otherwise specified), type II diabetes, and obesity. They have no other psychiatric disorders including mood or anxiety disorders.

word finding difficulty = test: Example 1: case report, atomoxetine added for word finding difficulty on topiramate; assay type: in vivo, patient; conditions: for word finding (patient description): person on topiramate
Description: as §1

[2] = system: feeling dull and having difficulty concentrating
[3] = system: feeling "cloudy" and "disoriented"; test: Example 3: case report, atomoxetine added for feeling cloudy and disoriented on olanzapine, clonazepam, fiorinal; assay type: in vivo, patient
Procedure: Patient is a person with major depression, panic, generalized anxiety disorder, chronic headaches and fibromyalgia. They are on escitalopram 20 mg po qd, olanzapine 7.5 mg po qhs, clonazepam 0.5 mg po bid, and fiorinal prn. […] Atomoxetine was initiated at 18 mg po qd and increased to 25 mg po qd after 8 days.

SMILES | weight ([1]; higher dosages of topiramate) | urges and control over shopping behaviors ([1]; person, topiramate dose slowly increased) | cognitive side effect ([1]; topiramate increased to 75 mg po qd) | tolerability of higher topiramate dose (word finding difficulty; atomoxetine 40 mg po qd, tolerated for 2 months) | word finding (patient description) (word finding difficulty; atomoxetine 25 mg po qd, over the next month) | word finding (patient description) (word finding difficulty; atomoxetine 40 mg po qd, over the following month) | improvement compared with 25 mg (patient description) ([2]; atomoxetine 40 mg po qd) | side effects ([2]; atomoxetine 40 mg po qd) | concentration and side effects ([2]; atomoxetine alternating 25 mg and 40 mg po qd every other day) | tolerability of effective dose of alpraxolam (2-4 mg/day) ([2]; on atomoxetine alternating 25 mg and 40 mg po qd) | concentration and ability to work (patient description) ([2]; person on escitalopram 20 mg po qd and alprazolam, atomoxetine 25 mg po qd, within a few days) | duration of stable effect ([3]; atomoxetine 25 mg po qd) [months] | tolerability of other medications in terms of cognitive functioning ([3]; on atomoxetine 25 mg po qd) | concentration, attention, focus (patient description) ([3]; person on escitalopram, olanzapine, clonazepam, fiorinal, atomoxetine 18 mg po qd increased to 25 mg po qd after 8 days)
CC1(C)O[C@@H]2[C@@H](CO[C@@]3(COS(N)(=O)=O)OC(C)(C)O[C@@H]23)O1 [topiramate] | decreased weight | decreased urges and improved control over their shopping behaviors | word finding difficulty which persisted |  |  |  |  |  |  |  |  |  |  | 
CNCC[C@@H](Oc1ccccc1C)c1ccccc1 [Atomoxetine, atomoxetine] |  |  |  | could tolerate a topiramate dose of 100 mg without difficulty | mild improvement in word finding | noticeable improvement in their word finding | did not have the same improvement as at 25 mg | felt dizzy and “spacy” | improved concentration without significant side effects | without difficulties in concentration/cognitive functioning | improved concentration and improved ability to work | 2 | able to tolerate their other medications without difficulty in terms of cognitive functioning | improved concentration, attention, and “focus”
